Results published in patent US20030044413A1, “Methods of limiting apoptosis of cells” (Regents of the University of Minnesota, priority 1998, published 2003).
“And” between values parts separate entries of the source, which are not always exact repeats. Equal values may be shown once.

Columns and labels:
[1] = system: isolated rat liver mitochondria; assay: MPT spectrophotometric assay (mitochondrial swelling); details: for effect on DCA-induced MPT / mitochondrial swelling: preincubation (500 μM bile acid or cyclosporine A) before DCA; for mitochondrial swelling with the substance alone: substance alone added to isolated mitochondria
Protocol: Isolation of mitochondria and MPT assays. Low calcium liver mitochondria were isolated from male 200-250 g Sprague-Dawley rats by density gradient centrifugation as previously published (Botla et al., J. Pharmacol. Exp. Ther., 272, 930-938 (1995); Walajtys-Rhode et al., J. Biol. Chem., 267, 370-379 (1992); and Sokol et al., Gastroenterology, 99, 1061-1071 (1990)). The mitochondrial fraction was resuspended in 30 ml of wash buffer containing 0.1 M KCl, 5 mM 3-(N-morpholino)-propane sulfonic acid (MOPS), and 1 mM EGTA, at pH 7.4 and centrifuged at 7,000×g for 10 min at 4° C. A final wash was carried out in chelex-100-treated buffer (Bio-Rad Laboratories, Hercules, Calif.) containing no EGTA. The resulting pellet was suspended in 4 ml of chelex--100-treated buffer containing 125 mM sucrose, 5 mM HEPES, 50 mM KCl and 2 mM KH2PO4. The usual yield of mitochondria was approximately 25 mg of protein per gram of liver tissue. Mitochondrial purity was established as previously described (Botla et al., J. Pharmacol. Exp. Ther., 272, 930-938 (1995)). Protein concentrations were determined using the Bio-Rad protein assay kit as specified by the manufacturer.
MPT was measured spectrophotometrically as described previously (Botla et al., J. Pharmacol. Exp. Ther., 272, 930-938 (1995); Pastorino et al., J. Biol. Chem., 268, 13791-13798 (1993)), during 10 min incubations at 25° C. using mitochondria (1 mg of protein/ml) suspended in 3 ml of a chelex-100-treated buffer containing 0.1 M NaCl, 10 mM MOPS, pH 7.4. Swelling was monitored at 540 nm in a Beckman DU 64 spectrophotometer. Basal values of mitochondria absorbance were measured for 5 min, and the optical density was monitored another 5 min after addition of 200 μM DCA or 80 μM phenylarsine oxide (PhAsO; Sigma Chemical Co.). For coincubation studies, mitochondria were preincubated with 500 μM UDCA or hyodeoxycholic acid for 5 min at 25° C. prior to the assay.
Spectrophotometric and Fluorimetric Assays of MPT. The MPT was assessed using a spectrophotometric assay measuring high amplitude rapid changes in mitochondrial volume, and a fluorimetric assay quantitating the release of calcein from calcein-loaded mitochondria. The MPT was measured spectrophotometrically as previously described (Pastorino, J. Biol. Chem., 268, 13791-13798 (1993); Botla et al., J. Pharmacol. Exp. Ther., 272, 930-938 (1995)). Briefly, mitochondria (3 mg protein) were incubated in 3 ml of chelex-100-treated respiration buffer (0.1 M NaCl, 10 mM MOPS, pH 7.4) for 10 min at 25° C. and monitored at 540 nm in a Beckman DU 64 spectrophotometer. Basal values of mitochondrial absorbance were measured for 5 min, and the optical density was monitored for an additional 5 min after addition of increasing concentrations of DCA (50-200 μM) or 80 μM phenylarsine oxide (PhAsO; Sigma Chemical Co., St. Louis, Mo.). For the coincubation studies, mitochondria were preincubated with UDCA (100-500 μM), or 500 μM hyodeoxycholic acid (HDCA; Sigma Chemical Co.) for 5 min at 25° C. prior to initiation of the assay.
Measurement of MPT and determination of cytochrome c content in supernatants and mitochondrial pellets after MPT. The MPT was assessed using a spectrophotometric assay measuring high amplitude rapid changes in mitochondria volume. Mitochondria (1 mg protein) were incubated in 1 ml of chelex-100-treated respiration buffer (0.1 M NaCl, 10 mM MOPS, pH 7.4) for 10 min at 25° C. and swelling was monitored at 540 nm in a Beckman DU 64 spectrophotometer. Malate and glutamate (1 mM) were added to initiate respiration, and 3 min later rotenone (5 μM), an inhibitor of complex I of the respiratory chain, was also added to the supension. Basal values of mitochondria absorbance were measured for 5 min, and the optical density was monitored for an additional 5 min after addition 200 μM DCA or 80 μM phenylarsine oxide (PhAsO; Sigma Chemical Co.). […]

HeLa cells = assay: Okadaic acid-induced apoptosis, HeLa cells; type: cell-based, human
Protocol: HuH-7 cells were treated with 1 nM TGF-β1, 100 μM of either hyodeoxycholic acid, taurocholic acid, tauroursodeoxycholic acid (Sigma Chemical Co.) or glycoursodeoxycholic acid (Steraloids Inc., Wilton, N.H.), or a combination of TGF-β1 plus the individual bile acids for 72 h. HeLa and Cos-7 cells were incubated with 50 nM okadaic acid, 100 μM of either tauroursodeoxycholic acid or glycoursodeoxycholic acid, or a combination of okadaic acid plus the individual bile acids for 24 h. In the combination groups, cells were pretreated with the bile acid alone for 60 min prior to incuation with TGF-β1 or okadaic acid. In all studies, the medium was gently removed at the indicated times and scored for nonviable cells. The attached cells were fixed for morphologic evaluation of apoptosis.
Morphological evaluation of apoptosis. Morphology was performed as described previously (Oberhammer et al., Proc. Natl. Acad. Sci. USA 89, 5408-5412 (1992)). […] Fluorescence was visualized with a Zeiss standard fluorescence microscope (Carl Zeiss, Inc., Thornwood, N.Y.). […] Stained nuclei were scored by blind analysis and categorized according to the condensation and staining characteristics of chromatin. […] Three fields per dish of approximately 500 nuclei were counted; mean values are expressed as the percent of apoptotic nuclei.

[2] = system: calcein-loaded isolated rat liver mitochondria; assay: MPT fluorimetric assay (calcein release)
Protocol: The fluorimetric assay was performed after loading the mitochondria with 10 μM calcein-acetoxymethyl ester (AM) (Molecular Probes Inc., Eugene, Oreg.) for 30 min at 37° C. in chelex-100 treated resuspension buffer before purification by sucrose-percoll gradient centrifugation (Botla et al., J. Pharmacol. Exp. Ther., 272, 930-938 (1995)). The assays were performed using calcein-loaded isolated mitochondria (1 mg protein/ml) in chelex-100-treated respiration buffer at 37° C. For the coincubation assays, the samples were preincubated for 10 min with 500 μM UDCA prior to addition of 200 μM DCA. The fluorescence of calcein was monitored by excitation and emission wavelengths of 490 nm and 515 nm, respectively, using a Perkin-Elmer luminescence spectrometer model LS-5B (Perkin-Elmer Ltd., Buckinghamshire, England).

Compound: C[C@H](CCC(=O)O)[C@H]1CC[C@H]2[C@@H]3CC[C@@H]4C[C@H](O)CC[C@]4(C)[C@H]3C[C@H](O)[C@]12C [DCA, deoxycholic acid]
- concentration at which high amplitude mitochondrial swelling was detected (as low as) [1]: 50 µM
- MPT, increase over control ([1]; 50 μM DCA): 4 fold

Compound: C[C@H](CCC(=O)O)[C@H]1CC[C@H]2[C@@H]3[C@@H](O)C[C@@H]4C[C@H](O)CC[C@]4(C)[C@H]3CC[C@]12C [UDCA, ursodeoxycholic acid]
- percent apoptosis (HeLa cells; okadaic acid + UDCA): 20.5±7.1%
- swelling ([1]; 100 μM UDCA 5 min before 200 μM DCA): 26.8±6.3%
- inhibition of DCA-induced MPT (mitochondrial swelling) ([1]; 200 μM DCA, pretreatment 500 μM UDCA or 5 μM cyclosporine A): > 40% and 43.1±1.6%
- swelling ([1]; 500 μM UDCA 5 min before 200 μM DCA): 16.9±2.3%
- inhibition at 500 µM ([2]; Rattus norvegicus, 200 μM DCA, 500 μM UDCA pretreatment 10 min, read-out: inhibition of DCA-induced calcein release): ~50%

Compound: C[C@H](CCC(=O)O)[C@H]1CC[C@H]2[C@@H]3C[C@H](O)[C@@H]4C[C@H](O)CC[C@]4(C)[C@H]3CC[C@]12C [hyodeoxycholic acid]
- effect on DCA-induced MPT / mitochondrial swelling [1]: nor did it have a protective effect
- effect on DCA-induced MPT / mitochondrial swelling ([1]; listed as HDCA): did not decrease DCA-induced mitochondrial swelling
- mitochondrial swelling with the substance alone [1]: No significant mitochondrial swelling
- effect on DCA-induced calcein release ([2]; 500 μM HDCA pretreatment): did not decrease DCA-induced mitochondrial swelling (FIG. 8B) or prevent calcein release

Compound: C=C1[C@@H](O)[C@@H]2O[C@]3(CC[C@H](/C=C/[C@@H](C)[C@@H]4CC(C)=C[C@@]5(O[C@H](C[C@@](C)(O)C(=O)O)CC[C@H]5O)O4)O3)CC[C@H]2O[C@@H]1[C@@H](O)C[C@H](C)[C@H]1O[C@@]2(CCCCO2)CC[C@H]1C [okadaic acid]
- percent apoptosis (HeLa cells; okadaic acid alone): 50.0±14.9%
- mitochondrial swelling with the substance alone [1]: did not induce mitochondria swelling

Compound: TGF-β1: transforming growth factor β1, nonmembrane damaging inducer of apoptosis
- mitochondrial swelling with the substance alone [1]: did not induce mitochondria swelling
